Values after ≈ are worked out from the molar mass of the structure shown.
Columns and labels:
B. mallei = experiment: microbe, parasite or virus in culture; format: cell-based; settings: Burkholderia mallei, read-out: Minimal Inhibitory Concentration (MIC)
[1] = test system: large panel of bacteria including Gram+ and Gram- bacteria and Mycobacterium as well as fungi associated to plant infection; format: cell-based
[2] = test system: E. coli (ATCC 8739), B. subtilis (ATCC 6633), P. aeruginosa (ATCC 9027), S. aureus (ATCC 6538P), H. pylori (ATCC43504), C. albicans (ATCC 200498); format: cell-based
B. pseudomallei = experiment: microbe, parasite or virus in culture; format: cell-based; settings: Burkholderia pseudomallei, read-out: Minimal Inhibitory Concentration (MIC)
[3] = test system: Streptomyces roietensis (DSM 101729); experiment: microbe, parasite or virus in culture; format: cell-based; settings: DSM101729, read-out: Minimal Inhibitory Concentration (MIC)
[4] = test system: Pseudomonas syringae (DSM 10604); experiment: microbe, parasite or virus in culture; format: cell-based; settings: DSM10604, read-out: Minimal Inhibitory Concentration (MIC)
B. cepacia = experiment: microbe, parasite or virus in culture; format: cell-based; settings: Burkholderia cepacia, read-out: Minimal Inhibitory Concentration (MIC)
[5] = test system: human cells A498, BEAS-2B, Caco-2, HaCaT, HepG2, HUVEC, IMR90, N87
[6] = test system: human liver cell line HepG2 (ATCC HB-8065); experiment: cells; settings: HepG2, 48 h, read-out: IC50 on the viability of HepG2 cells
Erwina cacticida = settings: cited from earlier work
Phoma medicaginis = settings: cited from earlier work
[7] = test system: P. aeruginosa (ATCC 9027); format: cell-based, Pseudomonas aeruginosa
[8] = test system: human liver cell line HepG2 (ATCC HB-8065)

Compound | MIC (B. mallei) [µM] | MIC (B. pseudomallei) [µM] | MIC [3] [µM] | MIC [4] [µM] | MIC (B. cepacia) [µM] | also measured
CC(=O)Nc1ccc2c(c1)C(=O)/C(=C/c1ccc(OC(C)C)cc1)O2 [B5, (Z)-N-(2-(4-isopropoxybenzylidene)-3-oxo-2,3-dihydrobenzofuran-5-yl)acetamide] | 1.5 to 12.5 (≈ 0.506 to 4.22 µg/mL) | 1.5 to 12.5 (≈ 0.506 to 4.22 µg/mL) | 6.25 to 12.5 (≈ 2.11 to 4.22 µg/mL) | 1.5 to 3.12 (≈ 0.506 to 1.05 µg/mL) | 3.12 to 12.5 (≈ 1.05 to 4.22 µg/mL) | antimicrobial activity, spectrum [1]: confirmed the activity; antimicrobial activity on tested strains (ranking) [2]: the more active; Therapeutic index (TI) or safe factor (SF) [5]: 38-4017; mean of TI/SF [5]: 103
CC(=O)Nc1ccc2c(c1)C(=O)/C(=C/c1ccc(OCc3ccccc3)c(OCc3ccccc3)c1)O2 [AD-1-49, (Z)-N-(2-(3,4-bis(benzyloxy)benzylidene)-3-oxo-2,3-dihydrobenzofuran-5-yl)acetamide] | – | – | – | – | – | IC50 [6]: > 250 µM
COc1c(C)c(O)c(C)c2c1C(=O)/C(=C/c1ccccc1)O2 [C10, (Z)-2-benzylidene-6-hydroxy-4-methoxy-5,7-dimethylbenzofuran-3(2H)-one] | 1.5 to 12.5 (≈ 0.444 to 3.7 µg/mL) | 1.5 to 12.5 (≈ 0.444 to 3.7 µg/mL) | – | – | – | –
cephalocerone | – | – | – | – | – | growth inhibition (Erwina cacticida): inhibit the growth
O=C1/C(=C/c2ccc(Oc3ccc4oc(-c5ccccc5)cc(=O)c4c3)cc2)Oc2ccccc21 [E5, (Z)-6-(4-((3-oxobenzofuran-2(3H)-ylidene)methyl)phenoxy)-2-phenyl-4H-chromen-4-one] | – | – | 6.25 to 12.5 (≈ 2.87 to 5.73 µg/mL) | 1.5 to 3.12 (≈ 0.688 to 1.43 µg/mL) | – | antimicrobial activity, spectrum [1]: confirmed the activity; antimicrobial activity on tested strains (ranking) [2]: the more active; Therapeutic index (TI) or safe factor (SF) [5]: 38-4017; mean of TI/SF [5]: 852
CN(C)c1ccc(/C=C2\Oc3ccc(C(=O)O)cc3C2=O)cc1 [AD-1-62, (2Z)-2-[4-(dimethylamino)benzylidene]-3-oxo-2,3-dihydro-1-benzofuran-5-carboxylic acid] | – | – | – | – | – | IC50 [6]: > 250 µM
CC(=O)Nc1ccc2c(c1)C(=O)/C(=C/c1ccc(C(=O)O)cc1)O2 [C4, (Z)-4-((5-acetamido-3-oxobenzofuran-2(3H)-ylidene)methyl)benzoic acid] | 1.5 to 12.5 (≈ 0.485 to 4.04 µg/mL) | 1.5 to 12.5 (≈ 0.485 to 4.04 µg/mL) | – | – | – | –
COc1cc(/C=C2\Oc3ccc(NC(C)=O)cc3C2=O)cc(OC)c1OC [D1, (Z)-N-(3-oxo-2-(3,4,5-trimethoxybenzylidene)-2,3-dihydrobenzofuran-5-yl)acetamide] | 1.5 to 12.5 (≈ 0.554 to 4.62 µg/mL) | 1.5 to 12.5 (≈ 0.554 to 4.62 µg/mL) | – | – | 3.12 to 12.5 (≈ 1.15 to 4.62 µg/mL) | melting point: 254 °C
COc1ccc(/C=C2\Oc3cc(N)ccc3C2=O)cc1 [C11, (Z)-6-amino-2-(4-methoxybenzylidene)benzofuran-3(2H)-one] | 1.5 to 12.5 (≈ 0.401 to 3.34 µg/mL) | 1.5 to 12.5 (≈ 0.401 to 3.34 µg/mL) | 6.25 to 12.5 (≈ 1.67 to 3.34 µg/mL) | 1.5 to 3.12 (≈ 0.401 to 0.834 µg/mL) | 3.12 to 12.5 (≈ 0.834 to 3.34 µg/mL) | antimicrobial activity, spectrum [1]: confirmed the activity; antimicrobial activity on tested strains (ranking) [2]: the more active; Therapeutic index (TI) or safe factor (SF) [5]: 38-4017; mean of TI/SF [5]: 355
CC(=O)Nc1ccc2c(c1)C(=O)/C(=C/c1cccc(OCc3ccccc3)c1)O2 [A7, (Z)-N-(2-(3-(benzyloxy)benzylidene)-3-oxo-2,3-dihydrobenzofuran-5-yl)acetamide] | 1.5 to 12.5 (≈ 0.578 to 4.82 µg/mL) | 1.5 to 12.5 (≈ 0.578 to 4.82 µg/mL) | 6.25 to 12.5 (≈ 2.41 to 4.82 µg/mL) | 1.5 to 3.12 (≈ 0.578 to 1.2 µg/mL) | 3.12 to 12.5 (≈ 1.2 to 4.82 µg/mL) | antimicrobial activity, spectrum [1]: confirmed the activity; antimicrobial activity on tested strains (ranking) [2]: the more active; Therapeutic index (TI) or safe factor (SF) [5]: 38-4017; mean of TI/SF [5]: 370
hispidol | – | – | – | – | – | inhibition of fungal pathogen (Phoma medicaginis): inhibit
COc1cccc(/C=C2\Oc3ccc(C(=O)O)cc3C2=O)c1 [AD-1-61, (2Z)-2-(3-methoxybenzylidene)-3-oxo-2,3-dihydro-1-benzofuran-5-carboxylic acid] | – | – | – | – | – | IC50 [6]: > 250 µM
Nc1ccc2c(c1)C(=O)/C(=C/c1cccc(Oc3ccccc3)c1)O2 [B1, (Z)-5-amino-2-(3-phenoxybenzylidene)benzofuran-3(2H)-one] | 1.5 to 12.5 (≈ 0.494 to 4.12 µg/mL) | 1.5 to 12.5 (≈ 0.494 to 4.12 µg/mL) | 6.25 to 12.5 (≈ 2.06 to 4.12 µg/mL) | 1.5 to 3.12 (≈ 0.494 to 1.03 µg/mL) | 3.12 to 12.5 (≈ 1.03 to 4.12 µg/mL) | –
O=C1/C(=C/c2ccc(OCc3ccccc3)cc2OCc2ccccc2)Oc2ccccc21 [C12, (Z)-2-(2,4-bis(benzyloxy)benzylidene)benzofuran-3(2H)-one] | 1.5 to 12.5 (≈ 0.652 to 5.43 µg/mL) | 1.5 to 12.5 (≈ 0.652 to 5.43 µg/mL) | – | – | 3.12 to 12.5 (≈ 1.36 to 5.43 µg/mL) | antimicrobial activity, spectrum [1]: confirmed the activity; antimicrobial activity on tested strains (ranking) [2]: the more active; Therapeutic index (TI) or safe factor (SF) [5]: 38-4017; mean of TI/SF [5]: 1169
O=C(O)CCCCCOc1ccc(/C=C2\Oc3ccccc3C2=O)cc1 [MR1076, (Z)-6-(4-((3-oxobenzofuran-2(3H)-ylidene)methyl)phenoxy)hexanoic acid] | – | – | – | – | – | IC50 [6]: > 250 µM; antimicrobial activity [7]: active
O=C(O)c1ccc2c(c1)C(=O)/C(=C/c1ccc(OCc3ccccc3)c(OCc3ccccc3)c1)O2 [MR1065, (Z)-2-(3,4-bis(benzyloxy)benzylidene)-3-oxo-2,3-dihydrobenzofuran-5-carboxylic acid] | – | – | – | – | – | Therapeutic index (TI) or safe factor (SF) [8]: 712.82
hispidol-4′-O-β-D-glucoside | – | – | – | – | – | inhibition of fungal pathogen (Phoma medicaginis): inhibit
COc1ccc(/C=C2\Oc3ccccc3C2=O)cc1 [D10, (Z)-2-(4-methoxybenzylidene)benzofuran-3(2H)-one] | 1.5 to 12.5 (≈ 0.378 to 3.15 µg/mL) | 1.5 to 12.5 (≈ 0.378 to 3.15 µg/mL) | 6.25 to 12.5 (≈ 1.58 to 3.15 µg/mL) | 1.5 to 3.12 (≈ 0.378 to 0.787 µg/mL) | 3.12 to 12.5 (≈ 0.787 to 3.15 µg/mL) | –
CC(=O)Nc1ccc2c(c1)C(=O)/C(=C/c1ccccc1)O2 | – | – | – | – | – | melting point: 241 °C

Reference: patent US20230295103A1 (priority 2020, published 2023)
